Data set [1] in a line: Mouse maximum tolerated dose (MTD) experiment. Particulars: in vivo, mice, oral, administered 7 days then observed 7 days. How it is done:
In the mouse MTD experiment, the mice were administrated with the present compounds.
Healthy mice, having a small difference in body's weights, were chosen. The chosen mice were placed in different layers of cages according to their body's weights. In each layer, the mice were randomly divided into groups. In each group, there were three mice.
The administration dosages were 1000, 500, 250, 125, 62.5 and 31.25 mg/kg respectively and each two dosages differed by a factor of 2. For each of administration dosages, three mice were allotted. The mice were administrated with the present compounds for 7 days and then observed for the next 7 days without the present compounds.
The present compounds were orally administrated with the mice according to the administration dosage and the body weight.

For data set [2], the system named is PC-9. As to the kind of experiment: In vitro cell experiment (MTT), PC-9. It counts as cell-based. Particulars: 72 h, human non-small-cell lung carcinoma cells (EGFR1 19 exon mutation). As to the method: (§1) Cells in logarithmic growth phase were seeded at a certain density in a 96-well plate (200 μL/well). The cells were allowed to grow for 24 h and subsequently treated with different concentrations of drugs (including a blank group and a control group) and incubated for 72 h at 37° C. Each concentration in a given experiment was tested in triplicate. After 72 h of exposure, 20 μL of the MTT labeling reagent was added to the medium (the final concentration of MTT was 0.5 mg/mL), and the cells were incubated for additional 4 h at 37° C. Following this process, 180 μL of the medium was removed and 130 μL of DMSO was added to each well, or the medium was completely removed and 150 μL of DMSO was added to each well. Then the plate was shaken and mixed in a micro-oscillator. Finally the optical density (OD) of each sample was measured in a micro-plate reader at 550 nm. Cell inhibition rate was calculated according to the following formula: […]
(§2) According to cell inhibition rates, IC50 was calculated by LOGIT method. The experiments were repeated twice and the data was expressed as means±SD.

For data set [3], the system named is HCC827. As to the kind of experiment: In vitro cell experiment (MTT), HCC827. Particulars: 72 h, human non-small cell lung carcinoma (EGFR1 19 exon mutation). Type of data set: cell-based. As to the method: as §1, §2
For data set [4], the system named is A549. The experiment in a line: In vitro cell experiment (MTT), A549. Particulars: 72 h, human non-small-cell lung carcinoma cells (EGFR1 wildtype). It counts as cell-based. As to the method: as §1, §2
In data set [5] the test system is H292. As to the kind of experiment: In vitro cell experiment (MTT), H292. The following applies: NCI-H292, 72 h, human lung carcinoma cells (EGFR1 overexpressing). Type of data set: cell-based. How it is done:
as §1, §2

Data set [6] has as its system HCT116. The experiment in a line: In vitro cell experiment (MTT), HCT116. It counts as cell-based. The following applies: HCT-116, 72 h, human colon carcinoma cells. How it is done:
as §1, §2

For data set [7], the system named is A431. As to the kind of experiment: In vitro cell experiment (MTT), A431. It counts as cell-based. Particulars: A-431, 72 h, human epidermoid carcinoma (EGFR1 overexpressing). As to the method:
as §1, §2

Data set [8] has as its system HT-29. As to the kind of experiment: In vitro cell experiment (MTT), HT-29. Type of data set: cell-based. The following applies: 72 h, human colon carcinoma cells (expressing both c-KIT and PDGFR). How it is done:
as §1, §2

Data set [9] deals with SK-OV-3. As to the kind of experiment: In vitro cell experiment (MTT), SK-OV-3. Type of data set: cell-based. The following applies: 72 h, human ovarian carcinoma cells (EGFR2 overexpressing). As to the method: as §1, §2
Data set [10] deals with 3T3swiss. As to the kind of experiment: In vitro cell experiment (MTT), 3T3swiss. It counts as cell-based. Particulars: Fibroblast, 72 h, mouse fibroblasts (PDGFR overexpressing). How it is done: as §1, §2
The test system of data set [11] is Bel-7402. As to the kind of experiment: In vitro cell experiment (MTT), Bel-7402. Type of data set: cell-based. The following applies: 72 h, human hepatoma carcinoma cells. How it is done: as §1, §2
Data set [12] deals with HUVEC. The experiment in a line: In vitro cell experiment (MTT), HUVEC. It counts as cell-based. Particulars: 72 h, human umbilical vein endothelial cell (KDR overexpressing). How it is done:
as §1, §2

In turn, `COc1cc2c(Nc3ccc(Br)cc3F)ncnc2cc1OCCn1ccnc1` [Compound 34, 4-(4-bromo-2-fluoroanilino)-6-methoxy-7-(2-(1H-imidazol-1-yl)ethoxy)quinazoline] came in with an MTD in data set [1] of 125 to 250 mg/kg. The IC50 stood at 0.0057 µM in [2], 0.0082 µM in data set [3], 1.29 µM in [4] and 0.0908 µM in data set [5].
The compound `COc1cc2c(Nc3ccc(Br)cc3F)ncnc2cc1OCc1ccc(N2CCOCC2)cc1` [Compound 12, 4-(4-bromo-2-fluoroanilino)-6-methoxy-7-(4-morpholinobenz-yloxy)quinazoline] had an IC50 in [6] of 1.09 µM.
Same read-out and setting: the figure for `COc1cc2c(Nc3ccc(Br)cc3F)ncnc2cc1OCc1ccc(C(F)(F)F)cc1` [Compound 5, 4-(4-bromo-2-fluoroanilino)-6-methoxy-7-(4-trifluoromethyl-benzyloxy)quinazoline] is 1.04 µM.
`COc1cc2c(Nc3ccc(Br)cc3F)ncnc2cc1OCc1ccc2c(c1)OCO2` [Compound 1, 4-(4-bromo-2-fluoroanilino)-6-methoxy-7-((1,3-benzodioxole-5-yl)methoxy)quinazoline]: in [1], the MTD was 500 to 1000 mg/kg. Further, the values for the IC50 in data set [7] and in [8] were 1.41 µM and 2.82 µM, respectively.
In [1], `COc1cc2c(Nc3ccc(F)c(Cl)c3)ncnc2cc1OCCCCCC(N)=O` [Compound 24, 6-(4-(3-chloro-4-fluoroanilino)-6-methoxyquinazolin-7-yl-oxy)hexanamide] registered an MTD of 125 to 250 mg/kg. For the same compound, the IC50 is 1.84 µM in [8]; 0.0056 µM in [3]; 2.45 µM in data set [9]; 2.94 µM in data set [4]; 0.0818 µM in data set [5].
Consider `COc1cc2c(Nc3ccc(Br)cc3F)ncnc2cc1OCCn1c(C)nc2ccccc21` [Compound 8, 4-(4-bromo-2-fluoroanilino)-6-methoxy-7-(2-(2-methyl-1H-benzo[d]imidazole-1-yl)ethoxy)quinazoline], for which the IC50 in data set [9] was 2.77 µM.
In turn, `COc1cc2c(Nc3ccc(Br)cc3F)ncnc2cc1OCc1cccc(C)n1` [Compound 7, 4-(4-bromo-2-fluoroanilino)-6-methoxy-7-((6-methylpyridine-2-yl)methoxy)quinazoline] showed an MTD in data set [1] of 62.5 to 125 mg/kg. Further, in data set [3], 0.0086 µM corresponded to half-maximal inhibition (IC50).
On to `COc1cc2c(Nc3ccc(Br)cc3F)ncnc2cc1OCC1CCOCC1` [Compound 15, 4-(4-bromo-2-fluoroanilino)-6-methoxy-7-((tetrahydropyran-4-yl)methoxy)quinazoline], for which, in data set [7], the IC50 is 2.95 µM.
As to `COc1cc2c(Nc3ccc(Br)cc3F)ncnc2cc1OCCCCC(N)=O` [Compound 33, 5-(4-(4-bromo-2-fluoroanilino)-6-methoxyquinazolin-7-yl-oxy)pentanamide], in [1], the MTD lay within 62.5 to 125 mg/kg. Also, the IC50 in data set [2] came out at 0.0083 µM; in data set [3], 0.0095 µM; in [4], 3.57 µM; in data set [5], 0.0734 µM.
Turning to `CNC(=O)CCCCCOc1cc2ncnc(Nc3ccc(Br)cc3F)c2cc1OC` [Compound 31, N-methyl-6-(4-(4-bromo-2-fluoroanilino)-6-methoxyquinazolin-7-yloxy)hexanamide], inhibition in data set [3] was half-maximal at 0.0107 µM (IC50).
In turn, `COc1cc2c(Nc3ccc(Br)cc3F)ncnc2cc1OCCCCCC(=O)N(C)C` [Compound 32, N, N-dimethyl-6-(4-(4-bromo-2-fluoroanilino)-6-methoxyquinazolin-7-yloxy)hexanamide] returned an MTD in data set [1] of 500 to 1000 mg/kg. The IC50 in data set [2] was 0.0067 µM; in [3] it was 0.011 µM; in data set [4] it was 2.7 µM.
Take `COc1cc2c(Nc3ccc(F)c(Cl)c3)ncnc2cc1OCCn1ccnc1` [Compound 36, 4-(3-chloro-4-fluoroanilino)-6-methoxy-7-(2-(1H-imidazol-1-yl)ethoxy)quinazoline]: the IC50 came out at 2.92 µM in data set [9] and 3.64 µM in [4].
As to `CNC(=O)CCCCCOc1cc2ncnc(Nc3ccc(F)c(Cl)c3)c2cc1OC` [Compound 42, N-methyl-6-(4-(3-chloro-4-fluoroanilino)-6-methoxyquinazolin-7-yloxy)hexanamide], half-maximal inhibition in data set [3] (IC50) was put at 0.0028 µM.
In the case of `COc1cc2c(Nc3ccc(Br)cc3F)ncnc2cc1OCc1csc(C)n1` [Compound 17, 4-(4-bromo-2-fluoroanilino)-6-methoxy-7-((2-methylthiazole-4-yl)methoxy)quinazoline], the MTD in [1] lay within 500 to 1000 mg/kg. This compound also registered an IC50 in data set [3] of 0.0067 µM.
Turning to `COc1cc2c(Nc3ccc(F)c(Cl)c3)ncnc2cc1OCCCCC(N)=O` [Compound 41, 5-(4-(3-chloro-4-fluoroanilino)-6-methoxyquinazolin-7-yl-oxy)pentanamide], the IC50 in data set [3] stood at 0.0009 µM; in data set [9], 2.68 µM; in data set [4] it was 2.71 µM; in data set [5] it was 0.0899 µM.
As for `COc1cc2c(Nc3ccc(F)c(Cl)c3)ncnc2cc1OCc1csc(C)n1` [Compound 27′, 4-(3-chloro-4-fluoroanilino)-6-methoxy-7-((2-methylthiazol-4-yl)methoxy)quinazoline], the IC50 in data set [3] stood at 0.0062 µM.
The same measure, in the same setting: the figure for `COc1cc2c(Nc3ccc(F)c(Cl)c3)ncnc2cc1OCCCCCC(=O)N(C)C` [Compound 43, N, N-dimethyl-6-(4-(3-chloro-4-fluoroanilino)-6-methoxyquinazolin-7-yloxy)hexanamide] is 0.0041 µM.
In the case of `COc1cc2c(Nc3ccc(Br)cc3F)ncnc2cc1OCCCC(N)=O` [Compound 23, 4-(4-(4-bromo-2-fluoroanilino)-6-methoxyquinazolin-7-yl-oxy)butanamide], the IC50 in [10] came out at 2.15 µM; in [3], 0.005 µM; in data set [9], 3.37 µM; in data set [4], 1.41 µM.
As for `COc1cc2c(Nc3ccc(Br)cc3F)ncnc2cc1Oc1ccc(C(=O)N2CCOCC2)cn1` [Compound 18, (6-(4-(4-bromo-2-fluoroanilino)-6-methoxyquinazolin-7-yl-oxy)pyridine-3-yl)(morpholino)methanone], half-maximal inhibition in data set [6] (IC50) was put at 0.962 µM.
In [3], `COc1cc2c(Nc3ccc(Br)cc3F)ncnc2cc1OCCc1csc(C)n1` [Compound 26, 4-(4-bromo-2-fluoroanilino)-6-methoxy-7-(2-(2-methylthiazol-4-yl)ethoxy)quinazoline] yielded an IC50 of 0.0014 µM.
Still for that read-out and setting: under `COc1cc2c(Nc3ccc(F)c(Cl)c3)ncnc2cc1OCCCn1ccnc1` [Compound 25, 4-(3-chloro-4-fluoroanilino)-6-methoxy-7-(3-(1H-imidazole-1-yl)propoxy)quinazoline] stands 0.0026 µM.
Take `COc1cc2c(Nc3ccc(F)c(Cl)c3)ncnc2cc1OCCN1CCCC1` [Compound 20, 4-(3-chloro-4-fluoroanilino)-6-methoxy-7-(2-(pyrrolidine-1-yl)ethoxy)quinazoline]: in data set [1], the MTD lay in the range of 125 to 250 mg/kg. The IC50 in [11] is 5.74 µM; in data set [10], 1.72 µM; in [7], 2.14 µM; in data set [8], 2.23 µM; in data set [3] it was 0.0029 µM; in data set [4] it was 2.68 µM.
For the compound `COc1cc2c(Nc3ccc(Br)cc3F)ncnc2cc1OCc1cccc(C#N)c1` [Compound 3, 4-(4-bromo-2-fluoroanilino)-6-methoxy-7-(3-cyanobenzyloxy) quinazoline], the maximal tolerated dose (MTD) in data set [1] was 500 to 1000 mg/kg. Further, the IC50 in data set [6] turned out to be 0.893 µM; in [9] it was 2.02 µM.
Turning to `COc1cc2c(Nc3ccc(Br)cc3F)ncnc2cc1OCCCCCC(N)=O` [Compound 6, 6-(4-(4-bromo-2-fluoroanilino)-6-methoxyquinazolin-7-yl-oxy)hexanamide], in data set [1], the MTD was over 1000 mg/kg. The IC50 in [7] is 2.1 µM; in [12], 0.0376 µM; in [3] it was 0.0047 µM; in [9] it was 2.65 µM; in data set [4] it was 3.93 µM; in [5], 0.0469 µM.
In the case of `COc1cc2c(Nc3ccc(F)c(Cl)c3)ncnc2cc1OCc1cnc(C)s1` [Compound 27, 4-(3-chloro-4-fluoroanilino)-6-methoxy-7-((2-methylthiazol-5-yl)methoxy)quinazoline], the MTD in data set [1] lay within 500 to 1000 mg/kg. Further, the IC50 was 2.92 µM in data set [8], 0.0046 µM in data set [3], 3.89 µM in data set [4] and 0.0783 µM in data set [5].

The values are drawn from patent publication US10421754B2, “Quinazoline derivative” (CSPC ZHONGQI PHARMACEUTICAL TECHNOLOGY (SHIJIAZHUANG) CO., …, priority 2014, dated 2019).
